Assay results: ChEMBL document CHEMBL3525917, “Species difference in the mechanism of nonlinear pharmacokinetics of E2074, a novel sodium channel inhibitor, in rats, dogs, and monkeys” (Drug Metab Dispos, 2013)

Tests used:
[1] = molecular target: MDR1A (P-glycoprotein, ABCB1) (Mus musculus, UniProt P21447); assay: Activity of mouse MDR1A expressed in pig LLC-PK1 cells assessed as efflux ratio of permeability from basolateral to apical side to apical to basolateral side at 1 uM after 2 hrs; assay type: ADME, cell-based
[2] = Tmax in wild-type mouse at 3 mg/kg, po; assay type: ADME, organism-based; set-up: dose 3 mg/kg, route oral; conditions: in vivo
[3] = Tmax in MDR1A/1B knock-out mouse at 3 mg/kg, po; assay type: ADME, organism-based; set-up: dose 3 mg/kg, route oral; conditions: in vivo
[4] = Cmax in wild-type mouse at 3 mg/kg, po; assay type: ADME, organism-based; set-up: dose 3 mg/kg, route oral; conditions: in vivo
[5] = Cmax in MDR1A/1B knock-out mouse at 3 mg/kg, po; assay type: ADME, organism-based; set-up: dose 3 mg/kg, route oral; conditions: in vivo
[6] = AUC in wild-type mouse at 3 mg/kg, po; assay type: ADME, organism-based; set-up: dose 3 mg/kg, route oral; conditions: plasma
[7] = AUC in MDR1A/1B knock-out mouse at 3 mg/kg, po; assay type: ADME, organism-based; set-up: dose 3 mg/kg, route oral; conditions: plasma
[8] = Ratio of drug level in brain to plasma in wild-type mouse at 3 mg/kg, po; assay type: ADME, organism-based; set-up: dose 3 mg/kg, route oral; conditions: brain and plasma
[9] = Ratio of drug level in brain to plasma in MDR1A/1B knock-out mouse at 3 mg/kg, po; assay type: ADME, organism-based; set-up: dose 3 mg/kg, route oral; conditions: brain and plasma
[10] = Solubility of the compound in phosphate buffered saline at pH 7 to 7.2; assay type: physicochemical
[11] = Tmax in Sprague-Dawley rat at 3 mg/kg, po; assay type: ADME, organism-based; set-up: dose 3 mg/kg, route oral; conditions: in vivo
[12] = Cmax in Sprague-Dawley rat at 3 mg/kg, po; assay type: ADME, organism-based; set-up: dose 3 mg/kg, route oral; conditions: in vivo
[13] = Half life in Sprague-Dawley rat at 3 mg/kg, po; assay type: ADME, organism-based; set-up: dose 3 mg/kg, route oral; conditions: in vivo
[14] = AUC in Sprague-Dawley rat at 3 mg/kg, po; assay type: ADME, organism-based; set-up: dose 3 mg/kg, route oral; conditions: plasma
[15] = Oral bioavailability in Sprague-Dawley rat at 3 mg/kg; assay type: ADME, organism-based; conditions: in vivo
[16] = Tmax in Sprague-Dawley rat at 10 mg/kg, po; assay type: ADME, organism-based; set-up: dose 10 mg/kg, route oral; conditions: in vivo
[17] = Cmax in Sprague-Dawley rat at 10 mg/kg, po; assay type: ADME, organism-based; set-up: dose 10 mg/kg, route oral; conditions: in vivo
[18] = Half life in Sprague-Dawley rat at 10 mg/kg, po; assay type: ADME, organism-based; set-up: dose 10 mg/kg, route oral; conditions: in vivo
[19] = AUC in Sprague-Dawley rat at 10 mg/kg, po; assay type: ADME, organism-based; set-up: dose 10 mg/kg, route oral; conditions: plasma
[20] = Oral bioavailability in Sprague-Dawley rat at 10 mg/kg; assay type: ADME, organism-based; conditions: in vivo
[21] = Tmax in Sprague-Dawley rat at 30 mg/kg, po; assay type: ADME, organism-based; set-up: dose 30 mg/kg, route oral; conditions: in vivo
[22] = Cmax in Sprague-Dawley rat at 30 mg/kg, po; assay type: ADME, organism-based; set-up: dose 30 mg/kg, route oral; conditions: in vivo
[23] = Half life in Sprague-Dawley rat at 30 mg/kg, po; assay type: ADME, organism-based; set-up: dose 30 mg/kg, route oral; conditions: in vivo
[24] = AUC in Sprague-Dawley rat at 30 mg/kg, po; assay type: ADME, organism-based; set-up: dose 30 mg/kg, route oral; conditions: plasma
[25] = Oral bioavailability in Sprague-Dawley rat at 30 mg/kg; assay type: ADME, organism-based; conditions: in vivo
[26] = Half life in beagle dog at 1 mg/kg, iv; assay type: ADME, organism-based, Canis lupus familiaris; set-up: dose 1 mg/kg, route intravenous; conditions: in vivo
[27] = AUC in beagle dog at 1 mg/kg, iv; assay type: ADME, organism-based, Canis lupus familiaris; set-up: dose 1 mg/kg, route intravenous; conditions: plasma
[28] = Clearance in beagle dog at 1 mg/kg, iv; assay type: ADME, organism-based, Canis lupus familiaris; set-up: dose 1 mg/kg, route intravenous; conditions: in vivo
[29] = Volume of distribution at steady state in beagle dog at 1 mg/kg, iv; assay type: ADME, organism-based, Canis lupus familiaris; set-up: dose 1 mg/kg, route intravenous; conditions: in vivo, read-out: Vdss
[30] = Tmax in beagle dog at 3 mg/kg, po; assay type: ADME, organism-based, Canis lupus familiaris; set-up: dose 3 mg/kg, route oral; conditions: in vivo
[31] = Cmax in beagle dog at 3 mg/kg, po; assay type: ADME, organism-based, Canis lupus familiaris; set-up: dose 3 mg/kg, route oral; conditions: in vivo
[32] = Half life in beagle dog at 3 mg/kg, po; assay type: ADME, organism-based, Canis lupus familiaris; set-up: dose 3 mg/kg, route oral; conditions: in vivo
[33] = AUC in beagle dog at 3 mg/kg, po; assay type: ADME, organism-based, Canis lupus familiaris; set-up: dose 3 mg/kg, route oral; conditions: plasma
[34] = Oral bioavailability in beagle dog at 3 mg/kg; assay type: ADME, organism-based, Canis lupus familiaris; conditions: in vivo
[35] = Tmax in beagle dog at 10 mg/kg, po; assay type: ADME, organism-based, Canis lupus familiaris; set-up: dose 10 mg/kg, route oral; conditions: in vivo
[36] = Cmax in beagle dog at 10 mg/kg, po; assay type: ADME, organism-based, Canis lupus familiaris; set-up: dose 10 mg/kg, route oral; conditions: in vivo
[37] = Half life in beagle dog at 10 mg/kg, po; assay type: ADME, organism-based, Canis lupus familiaris; set-up: dose 10 mg/kg, route oral; conditions: in vivo
[38] = AUC in beagle dog at 10 mg/kg, po; assay type: ADME, organism-based, Canis lupus familiaris; set-up: dose 10 mg/kg, route oral; conditions: plasma
[39] = Oral bioavailability in beagle dog at 10 mg/kg; assay type: ADME, organism-based, Canis lupus familiaris; conditions: in vivo
[40] = Half life in cynomolgus monkey at 1 mg/kg, iv; assay type: ADME, organism-based, Macaca fascicularis; set-up: dose 1 mg/kg, route intravenous; conditions: in vivo
[41] = AUC in cynomolgus monkey at 1 mg/kg, iv; assay type: ADME, organism-based, Macaca fascicularis; set-up: dose 1 mg/kg, route intravenous; conditions: plasma
[42] = Clearance in cynomolgus monkey at 1 mg/kg, iv; assay type: ADME, organism-based, Macaca fascicularis; set-up: dose 1 mg/kg, route intravenous; conditions: in vivo
[43] = Volume of distribution at steady state in cynomolgus monkey at 1 mg/kg, iv; assay type: ADME, organism-based, Macaca fascicularis; set-up: dose 1 mg/kg, route intravenous; conditions: in vivo, read-out: Vdss
[44] = Cmax in cynomolgus monkey at 3 mg/kg, po; assay type: ADME, organism-based, Macaca fascicularis; set-up: dose 3 mg/kg, route oral; conditions: in vivo
[45] = Half life in cynomolgus monkey at 3 mg/kg, po; assay type: ADME, organism-based, Macaca fascicularis; set-up: dose 3 mg/kg, route oral; conditions: in vivo
[46] = AUC in cynomolgus monkey at 3 mg/kg, po; assay type: ADME, organism-based, Macaca fascicularis; set-up: dose 3 mg/kg, route oral; conditions: plasma
[47] = Oral bioavailability in cynomolgus monkey at 3 mg/kg; assay type: ADME, organism-based, Macaca fascicularis; conditions: in vivo
[48] = Tmax in cynomolgus monkey at 10 mg/kg, po; assay type: ADME, organism-based, Macaca fascicularis; set-up: dose 10 mg/kg, route oral; conditions: in vivo
[49] = Cmax in cynomolgus monkey at 10 mg/kg, po; assay type: ADME, organism-based, Macaca fascicularis; set-up: dose 10 mg/kg, route oral; conditions: in vivo
[50] = Half life in cynomolgus monkey at 10 mg/kg, po; assay type: ADME, organism-based, Macaca fascicularis; set-up: dose 10 mg/kg, route oral; conditions: in vivo
[51] = AUC in cynomolgus monkey at 10 mg/kg, po; assay type: ADME, organism-based, Macaca fascicularis; set-up: dose 10 mg/kg, route oral; conditions: plasma
[52] = Oral bioavailability in cynomolgus monkey at 10 mg/kg; assay type: ADME, organism-based, Macaca fascicularis; conditions: in vivo
[53] = (§1) Drug metabolism in Sprague-Dawley rat liver microsomes after 7 mins by Michaelis-Menten plot analysis; assay type: ADME; conditions: Sprague-Dawley, liver microsomes
Liver microsome = assay: as §1; assay type: ADME; conditions: microsomes, 7 min

MDR1A (P-glycoprotein, ABCB1), sequence (P21447 whole entry): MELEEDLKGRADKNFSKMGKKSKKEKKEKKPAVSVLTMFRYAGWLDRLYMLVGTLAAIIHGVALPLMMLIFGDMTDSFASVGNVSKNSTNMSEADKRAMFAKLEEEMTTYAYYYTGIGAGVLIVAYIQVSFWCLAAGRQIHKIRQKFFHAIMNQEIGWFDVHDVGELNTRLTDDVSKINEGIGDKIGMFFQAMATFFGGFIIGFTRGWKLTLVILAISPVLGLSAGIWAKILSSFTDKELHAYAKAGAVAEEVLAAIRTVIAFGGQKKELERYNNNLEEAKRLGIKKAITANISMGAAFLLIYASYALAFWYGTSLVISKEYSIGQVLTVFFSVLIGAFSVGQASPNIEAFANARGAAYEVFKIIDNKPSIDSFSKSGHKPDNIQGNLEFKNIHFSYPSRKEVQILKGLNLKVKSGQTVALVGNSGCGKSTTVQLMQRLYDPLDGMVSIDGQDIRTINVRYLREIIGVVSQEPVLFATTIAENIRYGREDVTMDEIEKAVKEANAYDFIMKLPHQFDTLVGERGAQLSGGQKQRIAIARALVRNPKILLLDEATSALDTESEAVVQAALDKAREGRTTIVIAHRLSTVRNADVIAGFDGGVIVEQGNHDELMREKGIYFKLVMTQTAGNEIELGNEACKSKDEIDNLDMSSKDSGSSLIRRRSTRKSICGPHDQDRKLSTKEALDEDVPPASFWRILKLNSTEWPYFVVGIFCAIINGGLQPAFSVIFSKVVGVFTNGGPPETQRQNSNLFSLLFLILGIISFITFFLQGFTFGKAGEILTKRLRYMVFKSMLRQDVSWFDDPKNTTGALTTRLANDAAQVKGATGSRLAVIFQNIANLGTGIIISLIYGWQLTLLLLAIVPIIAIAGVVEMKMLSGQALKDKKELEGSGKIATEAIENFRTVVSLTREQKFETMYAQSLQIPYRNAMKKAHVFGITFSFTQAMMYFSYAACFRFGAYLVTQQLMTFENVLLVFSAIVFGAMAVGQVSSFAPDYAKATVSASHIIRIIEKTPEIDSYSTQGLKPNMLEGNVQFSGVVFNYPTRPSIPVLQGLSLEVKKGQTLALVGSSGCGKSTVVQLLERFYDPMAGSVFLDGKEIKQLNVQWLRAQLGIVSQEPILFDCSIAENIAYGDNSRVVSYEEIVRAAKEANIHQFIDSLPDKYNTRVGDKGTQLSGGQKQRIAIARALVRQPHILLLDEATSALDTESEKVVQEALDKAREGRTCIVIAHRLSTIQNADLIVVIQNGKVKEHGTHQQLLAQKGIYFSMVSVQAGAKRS

Work on `Cc1nn(C[C@H](F)CN2C3CCC2CC(OCc2cccc(F)c2)C3)c(=O)n1C` (some centres undefined) yielded an efflux ratio at 2 h, 1 µM [1] of 3.14, a Tmax [2] of 30 min and a Tmax [3] of 15 min. It also gave a Cmax [4] of 110 ng/mL, a Cmax [5] of 100 ng/mL and an AUC [6] of 230 ng·h/mL. It also gave an AUC [7] of 240 ng·h/mL, a Kp [8] of 2.4 and a Kp [9] of 8.3. The solubility [10] was greater than 2000 µg/mL, the Tmax [11] was 15 min and the Cmax [12] was 20 ng/mL. It also gave a half-life [13] of 30 min, an AUC [14] of 20 ng·h/mL and a bioavailability [15] of 2.6%. It also gave a Tmax [16] of 15 min, a Cmax [17] of 200 ng/mL and a half-life [18] of 34.2 min. The AUC [19] was 170 ng·h/mL, the bioavailability [20] was 5.3% and the Tmax [21] was 15 min. For the same molecule, the Cmax [22] was 1360 ng/mL, the half-life [23] was 81.6 min and the AUC [24] was 1420 ng·h/mL. For the same molecule, the bioavailability [25] was 15.1%, the half-life [26] was 62.4 min and the AUC [27] was 620 ng·h/mL. The clearance [28] was 28.3 mL/min/kg, the Vd [29] was 1.84 L/kg and the Tmax [30] was 30 min. For the same molecule, the Cmax [31] was 20 ng/mL, the half-life [32] was 54.6 min and the AUC [33] was 20 ng·h/mL. The bioavailability [34] was 1.2%, the Tmax [35] was 30 min and the Cmax [36] was 1070 ng/mL. For the same molecule, the half-life [37] was 109 min, the AUC [38] was 2730 ng·h/mL and the bioavailability [39] was 43.7%. For the same molecule, the half-life [40] was 116 min, the AUC [41] was 700 ng·h/mL and the clearance [42] was 22.5 mL/min/kg. The Vd [43] was 3.07 L/kg, the Cmax [44] was 40 ng/mL and the half-life [45] was 95.4 min. It also gave an AUC [46] of 180 ng·h/mL, a bioavailability [47] of 7.8% and a Tmax [48] of 1 h. The Cmax [49] was 470 ng/mL, the half-life [50] was 177 min and the AUC [51] was 1580 ng·h/mL. It also gave a bioavailability [52] of 20.9%, a Km at 7 min [53] of 7.23 µM and a Vmax (Liver microsome) of 1.42 nmol/min/mg.
